According to patent US11702422B2, “Imidazopyridazines as modulators of IL-17” (Janssen Pharmaceutica NV, priority 2020, dated 2023):

Key:
[1] = molecular target: IL-17A(FLAG-Tagged): IL-17RA(His-Tagged) (Homo sapiens, UniProt Q16552, K93Q); experiment: IL-17A(FLAG-Tagged): IL-17RA(His-Tagged) Binding Disruption Eu-HTRF Assay; conditions: IL-17A/IL-17RA binding disruption, simple average if tested more than once
Summary of the method: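 IC50 comes from a one-site competition fit of the HTRF 665/620 nm ratio. Compound dilutions (2-fold, 22 points) were held 1 h rt with FLAG-tagged IL-17A dimer, then His-tagged IL-17RA plus Eu-cryptate anti-FLAG and D2 anti-His antibodies were added for 2 h rt.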

[2] = system: IL-17A-induced G-CSF production in human normal keratinocyte (NHK); experiment: NHK Assay: IL-17A-induced G-CSF production in human normal keratinocytes; assay type: cell-based; conditions: 24 h, adult normal human keratinocytes, IL-17A 5 ng/mL, simple average if tested more than once
Summary of the method: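 Adult normal human keratinocytes were seeded at 3000-4000 cells/well. Recombinant human IL-17A was pre-incubated 1 h at rt with titrated compound, then added to cells (final 5 ng/mL IL-17A, 0.2% DMSO, 5% FBS) for 24 h at 37° C. Supernatant G-CSF was measured by HTRF against a standard curve to give IC50.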

UniProt Q16552, sequence (Q16552 with tags, fused parts or gaps K93Q): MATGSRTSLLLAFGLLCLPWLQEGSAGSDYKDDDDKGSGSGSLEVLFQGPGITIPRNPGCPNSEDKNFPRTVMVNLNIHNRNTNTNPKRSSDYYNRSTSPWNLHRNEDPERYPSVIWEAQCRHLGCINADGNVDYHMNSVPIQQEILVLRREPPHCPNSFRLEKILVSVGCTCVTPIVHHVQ

| IC50 [1] [nM] | SMILES | IC50 ([2]; Homo sapiens, Keratinocyte) [nM] | IC50 [2] [nM] |
| --- | --- | --- | --- |
| 73 | Cc1cnoc1C(=O)N[C@H](c1cn2ncc([C@H](NC(=O)CCC(F)(F)F)C3CC3)cc2n1)C1CCC(F)(F)CC1 [Example 160, N—((S)-(7-((R)-Cyclopropyl(4,4,4-trifluorobutanamido)methyl)imidazo[1,2-b]pyridazin-2-yl)(4,4-difluorocyclohexyl)methyl)-4-methylisoxazole-5-carboxamide] | 270 | – |
| 56 | Cc1nonc1C(=O)N[C@H](c1cn2ncc([C@H](NC(=O)C[C@H]3C[C@H](F)C3)C3CC3)cc2n1)C1CCC(F)(F)CC1 (single isomer, unassigned) [Example 266] | 290 | – |
| 45000 | Cc1nc(C)c(C(=O)N[C@H](c2cn3ncc([C@H](NC(=O)CCC(F)(F)F)C4CC4)cc3n2)C2CCC(F)(F)CC2)o1 [Example 472, N—((S)-(7-((R)-Cyclopropyl(4,4,4-trifluorobutanamido)methyl)imidazo[1,2-b]pyridazin-2-yl)(4,4-difluorocyclohexyl)methyl)-2,4-dimethyloxazole-5-carboxamide] | > 20000 | – |
| 5400 | O=C(CCC(F)(F)F)N[C@@H](c1cnn2cc([C@@H](NC(=O)[C@H]3C[C@H]3F)C3CCC(F)(F)CC3)nc2c1)C1CC1 [Example 97, (1R,2R)—N—((S)-(7-((R)-Cyclopropyl(4,4,4-trifluorobutanamido)methyl)imidazo[1,2-b]pyridazin-2-yl)(4,4-difluorocyclohexyl)methyl)-2-fluorocyclopropane-1-carboxamide] | > 20000 | – |
| 5000 | Cc1nonc1C(=O)N[C@H](c1cn2ncc([C@H](NC(=O)[C@H]3CC[C@H]3F)C3CC3)cc2n1)C1CCC(F)(F)CC1 (relative stereo) [Example 336, N—((S)-(7-((R)-Cyclopropyl((1R*,2R*)-2-fluorocyclobutane-1-carboxamido)methyl)imidazo[1,2-b]pyridazin-2-yl)(4,4-difluorocyclohexyl)methyl)-4-methyl-1,2,5-oxadiazole-3-carboxamide] | > 20000 | – |
| 27 | O=C(CCC(F)(F)F)N[C@@H](c1cnn2cc([C@@H](NC(=O)c3nonc3C3CC3)C3CCC(F)(F)CC3)nc2c1)C1CC1 [Example 381, 4-Cyclopropyl-N—((S)-(7-((R)-cyclopropyl(4,4,4-trifluorobutanamido)methyl)imidazo[1,2-b]pyridazin-2-yl)(4,4-difluorocyclohexyl)methyl)-1,2,5-oxadiazole-3-carboxamide] | 31 | – |

Further lines, the compound ahead of its results:

| SMILES | IC50 [1] [nM] | IC50 ([2]; Homo sapiens, Keratinocyte) [nM] | IC50 [2] [nM] |
| --- | --- | --- | --- |
| CCOc1cc(C(=O)N[C@H](c2cn3ncc([C@H](NC(=O)CCC(F)(F)F)C4CC4)cc3n2)C2CCC(F)(F)CC2)ccn1 [Example 177, N—((S)-(7-((R)-Cyclopropyl(4,4,4-trifluorobutanamido)methyl)imidazo[1,2-b]pyridazin-2-yl)(4,4-difluorocyclohexyl)methyl)-2-ethoxyisonicotinamide] | 53 | 440 | – |
| CC(C)n1nccc1C(=O)N[C@H](c1cn2ncc(C(NC(=O)CCC(F)(F)F)C3CC3)cc2n1)C1CCC(F)(F)CC1 (single isomer, unassigned) [Example 15, N—((S)-(7-((S*)-Cyclopropyl(4,4,4-trifluorobutanamido)methyl)imidazo[1,2-b]pyridazin-2-yl)(4,4-difluorocyclohexyl)methyl)-1-isopropyl-1H-pyrazole-5-carboxamide] | 1900 | – | 4800 |
| CC(C)n1nccc1C(=O)N[C@H](c1cn2ncc(C(NC(=O)CCC(F)(F)F)C3CC3)cc2n1)C1CCC(F)(F)CC1 (single isomer, unassigned) [Example 14, N—((S)-(7-((R*)-Cyclopropyl(4,4,4-trifluorobutanamido)methyl)imidazo[1,2-b]pyridazin-2-yl)(4,4-difluorocyclohexyl)methyl)-1-isopropyl-1H-pyrazole-5-carboxamide] | 120 | – | 50 |
| O=C(CCC(F)(F)F)N[C@@H](c1cnn2cc([C@@H](NC(=O)[C@H]3C(F)(F)C34CCC4)C3CCC(F)(F)CC3)nc2c1)C1CC1 (relative stereo) [Example 368, (S*)—N—((S)-(7-((R*)-Cyclopropyl(4,4,4-trifluorobutanamido)methyl)imidazo[1,2-b]pyridazin-2-yl)(4,4-difluorocyclohexyl)methyl)-2,2-difluorospiro[2.3]hexane-1-carboxamide] | 1600 | 9800 | – |
| O=C(CCC(F)(F)F)N[C@@H](c1cnn2cc([C@@H](NC(=O)c3cnn(CCOC(F)F)n3)C3CCC(F)(F)CC3)nc2c1)C1CC1 [Example 35, N—((S)-(7-((R)-Cyclopropyl(4,4,4-trifluorobutanamido)methyl)imidazo[1,2-b]pyridazin-2-yl)(4,4-difluorocyclohexyl)methyl)-2-(2-(difluoromethoxy)ethyl)-2H-1,2,3-triazole-4-carboxamide] | 120 | 200 | – |
| N#Cc1ccc(C(=O)N[C@H](c2cn3ncc([C@H](NC(=O)CCC(F)(F)F)C4CC4)cc3n2)C2CCC(F)(F)CC2)cc1 [Example 213, 4-Cyano-N—((S)-(7-((R)-cyclopropyl(4,4,4-trifluorobutanamido)methyl)imidazo[1,2-b]pyridazin-2-yl)(4,4-difluorocyclohexyl)methyl)benzamide] | 450 | 20000 | – |
| O=C(CCC(F)(F)F)N[C@@H](c1cnn2cc([C@@H](NC(=O)c3ncnn3CCOC(F)F)C3CCC(F)(F)CC3)nc2c1)C1CC1 [Example 55, N—((S)-(7-((R)-Cyclopropyl(4,4,4-trifluorobutanamido)methyl)imidazo[1,2-b]pyridazin-2-yl)(4,4-difluorocyclohexyl)methyl)-1-(2-(difluoromethoxy)ethyl)-1H-1,2,4-triazole-5-carboxamide] | 100 | 210 | – |
| CC(C)n1nccc1C(=O)N[C@H](c1cn2ncc([C@H](NC(=O)C[C@@](C)(O)C(F)(F)F)C3CC3)cc2n1)C1CCC(F)(F)CC1 (relative stereo) [Example 132, N—((S)-(7-((R*)-Cyclopropyl((R*)-4,4,4-trifluoro-3-hydroxy-3-methylbutanamido)methyl)imidazo[1,2-b]pyridazin-2-yl)(4,4-difluorocyclohexyl)methyl)-1-isopropyl-1H-pyrazole-5-carboxamide] | 220 | 260 | – |
| O=C(CCC(F)(F)F)N[C@@H](c1cnn2cc([C@@H](NC(=O)c3cncc(N4CCCC4=O)c3)C3CCC(F)(F)CC3)nc2c1)C1CC1 [Example 176, N—((S)-(7-((R)-Cyclopropyl(4,4,4-trifluorobutanamido)methyl)imidazo[1,2-b]pyridazin-2-yl)(4,4-difluorocyclohexyl)methyl)-5-(2-oxopyrrolidin-1-yl)nicotinamide] | 110 | 420 | – |
| Cc1ccnc(C(=O)N[C@H](c2cn3ncc([C@H](NC(=O)CCC(F)(F)F)C4CC4)cc3n2)C2CCC(F)(F)CC2)n1 [Example 212, N—((S)-(7-((R)-Cyclopropyl(4,4,4-trifluorobutanamido)methyl)imidazo[1,2-b]pyridazin-2-yl)(4,4-difluorocyclohexyl)methyl)-4-methylpyrimidine-2-carboxamide] | 13000 | > 20000 | – |
| [2H]C([2H])([2H])C([2H])([2H])n1nccc1C(=O)N[C@H](c1cn2ncc([C@H](CC)NC(=O)CC3CC(F)(F)C3)cc2n1)C1CCC(F)(F)CC1 (relative stereo) [Example 508, N—((S)-(7-((S*)-1-(2-(3,3-Difluorocyclobutyl)acetamido)propyl)imidazo[1,2-b]pyridazin-2-yl)(4,4-difluorocyclohexyl)methy)-1-(ethyl-d5)-1H-pyrazole-5-carboxamide] | 1200 | 10000 | – |
| Cn1nnc(C(=O)N[C@H](c2cn3ncc([C@H](NC(=O)CCC(F)(F)F)C4CC4)cc3n2)C2CCC(F)(F)CC2)c1C(F)F [Example 66, N—((S)-(7-((R)-Cyclopropyl(4,4,4-trifluorobutanamido)methyl)imidazo[1,2-b]pyridazin-2-yl)(4,4-difluorocyclohexyl)methyl)-5-(difluoromethyl)-1-methyl-1H-1,2,3-triazole-4-carboxamide] | 230 | 3500 | – |
| O=C(CC1CC(F)(F)C1)N[C@@H](c1cnn2cc([C@@H](NC(=O)[C@H]3C[C@@H]3C(F)(F)F)C3CCC(F)(F)CC3)nc2c1)C1CC1 (relative stereo) [Example 143, (Trans-1S*,2S*)—N—((S)-(7-((R)-Cyclopropyl(2-(3,3-difluorocyclobutyl)acetamido)methyl)imidazo[1,2-b]pyridazin-2-yl)(4,4-difluorocyclohexyl)methyl)-2-(trifluoromethyl)cyclopropane-1-carboxamide] | 130 | 450 | – |
| CC(C)n1nccc1C(=O)N[C@H](c1cn2ncc([C@H](NC(=O)C[C@H](O)C(F)(F)F)C3CC3)cc2n1)C1CCC(F)(F)CC1 (relative stereo) [Example 131, N—((S)-(7-((R*)-Cyclopropyl((S*)-4,4,4-trifluoro-3-hydroxybutanamido)methyl)imidazo[1,2-b]pyridazin-2-yl)(4,4-difluorocyclohexyl)methyl)-1-isopropyl-1H-pyrazole-5-carboxamide] | 87 | 100 | – |
